From patent US12157746B2, “Tetrahydro-1H-pyrazino[2,1-a]isoindolylquinoline compounds for the treatment of autoimmune disease” (F. HOFFMANN-LA ROCHE AG, priority 2018, dated 2024) come the findings set out here.

Molecules are shown by their SMILES.

The target in this assay is T1, human TLR9 (Homo sapiens, UniProt Q9NR96).
T1 sequence (Q9NR96 26-1032): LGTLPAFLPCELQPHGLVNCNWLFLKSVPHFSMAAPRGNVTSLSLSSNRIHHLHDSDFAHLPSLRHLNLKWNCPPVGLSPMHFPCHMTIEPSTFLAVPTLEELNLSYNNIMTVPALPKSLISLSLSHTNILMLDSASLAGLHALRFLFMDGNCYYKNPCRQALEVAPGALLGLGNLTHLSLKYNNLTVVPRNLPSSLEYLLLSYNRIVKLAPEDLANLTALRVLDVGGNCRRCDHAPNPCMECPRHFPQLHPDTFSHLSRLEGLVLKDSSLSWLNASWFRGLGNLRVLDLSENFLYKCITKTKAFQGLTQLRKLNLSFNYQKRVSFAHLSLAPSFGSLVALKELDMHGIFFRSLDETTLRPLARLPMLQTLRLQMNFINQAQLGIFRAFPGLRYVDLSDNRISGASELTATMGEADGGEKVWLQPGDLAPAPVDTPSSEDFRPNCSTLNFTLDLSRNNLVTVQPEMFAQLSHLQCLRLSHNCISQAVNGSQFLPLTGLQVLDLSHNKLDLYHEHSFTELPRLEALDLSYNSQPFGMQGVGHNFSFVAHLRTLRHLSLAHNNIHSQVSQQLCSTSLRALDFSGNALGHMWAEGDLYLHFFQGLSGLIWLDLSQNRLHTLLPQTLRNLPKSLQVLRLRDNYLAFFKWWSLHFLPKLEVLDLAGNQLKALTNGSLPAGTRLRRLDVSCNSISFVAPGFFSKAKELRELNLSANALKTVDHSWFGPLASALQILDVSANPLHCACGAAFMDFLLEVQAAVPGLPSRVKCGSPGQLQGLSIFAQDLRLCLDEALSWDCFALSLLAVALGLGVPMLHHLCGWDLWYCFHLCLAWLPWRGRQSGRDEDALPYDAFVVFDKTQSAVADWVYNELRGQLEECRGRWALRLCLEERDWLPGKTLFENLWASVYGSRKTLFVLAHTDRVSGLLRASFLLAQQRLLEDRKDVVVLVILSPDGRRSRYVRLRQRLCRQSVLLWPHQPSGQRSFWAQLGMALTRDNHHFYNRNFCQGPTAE
Description: HEK293-Blue-hTLR-9 cells assay. The class given is cell-based. As to conditions: HEK293-Blue-hTLR9 cells, ODN2006 stimulation, 20 hrs, SEAP reporter; read-out: HEK/hTLR9 IC50. The method, boiled down: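 Antagonist mode in HEK293-Blue hTLR9 reporter cells (SEAP under NF-κB/AP-1 sites), stimulated with ODN2006 added from a 20 uM solution. Serially diluted compound (1% DMSO final) was incubated 20 hrs at 37° C. Supernatant SEAP was developed with QUANTI-Blue for 2 h at 37° C and read at 620˜655 nm.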

As for `C[C@@H]1CN(c2ccc(C#N)c3ncccc23)C[C@@H]2c3ccc(N4C[C@@H]5CNCCN5C4=O)cc3CN12` [Example 71, 5-[(4R,10bS)-8-[(8aS)-3-oxo-1,5,6,7,8,8a-hexahydroimidazo[1,5-a]pyrazin-2-yl]-4-methyl-3,4,6,10b-tetrahydro-1H-pyrazino[2,1-a]isoindol-2-yl]quinoline-8-carbonitrile], the IC50 is 115 nM.

Take `C[C@@H]1CN(c2ccc(C#N)c3ncccc23)C[C@@H]2c3ccc(NC[C@@H]4CNCCO4)cc3CN12` [Example 58, 5-[(4R,10bS)-4-methyl-8-[[(2S)-morpholin-2-yl]methylamino]-3,4,6,10b-tetrahydro-1H-pyrazino[2,1-a]isoindol-2-yl]quinoline-8-carbonitrile]: the IC50 was determined as 84.3 nM.

Consider `C[C@@H]1CN(c2ccc(C#N)c3ncccc23)C[C@@H]2c3ccc(C(=O)N4CCC(C)(N)CC4)cc3CN12` [Example 88, 5-[(4R,10bS)-8-(4-amino-4-methyl-piperidine-1-carbonyl)-4-methyl-3,4,6,10b-tetrahydro-1H-pyrazino[2,1-a]isoindol-2-yl]quinoline-8-carbonitrile], for which the IC50 amounted to 165 nM.

For `C[C@@H]1CN(c2ccc(C#N)c3ncccc23)C[C@@H]2c3ccc(OC[C@@H]4C[C@H](F)CN4)cc3CN12` [Example 74, 5-[(4R,10bS)-8-[[(2S,4S)-4-fluoropyrrolidin-2-yl]methoxy]-4-methyl-3,4,6,10b-tetrahydro-1H-pyrazino[2,1-a]isoindol-2-yl]quinoline-8-carbonitrile], the IC50 is 136 nM.

In the case of `N#Cc1ccc(N2CCN3Cc4cc(N5CCNCC5)ccc4C3C2)c2cccnc12` (stereo not shown) [Example 3, 5-(8-piperazin-1-yl-3,4,6,10b-tetrahydro-1H-pyrazino[2,1-a]isoindol-2-yl)quinoline-8-carbonitrile], the IC50 worked out at 87.7 nM.

As to `Cc1ccc(N2C[C@@H](C)N3Cc4cc(N[C@H]5CNC[C@H]5F)ccc4[C@H]3C2)c2cccnc12` [Example 75, (4R,10bS)—N-[(3S,4R)-4-fluoropyrrolidin-3-yl]-4-methyl-2-(8-methyl-5-quinolyl)-3,4,6,10b-tetrahydro-1H-pyrazino[2,1-a]isoindol-8-amine], the IC50 is 203 nM.

In the case of `C[C@@H]1CN(c2ccc(C#N)c3ncccc23)C[C@@H]2c3ccc(N[C@@H]4CNCCOC4)cc3CN12` [Example 56A, 5-[(4R,10bS)-4-methyl-8-[[(6R)-1,4-oxazepan-6-yl]amino]-3,4,6,10b-tetrahydro-1H-pyrazino[2,1-a]isoindol-2-yl]quinoline-8-carbonitrile], the IC50 was found to be 83 nM.

On to `C[C@@H]1CN(c2ccc(C#N)c3ncccc23)C[C@@H]2c3cc(F)c(N4C[C@H](N)[C@@](C)(O)C4)cc3CN12` [Example 83, 5-[(4R,10bS)-8-[(3S,4S)-4-amino-3-hydroxy-3-methyl-pyrrolidin-1-yl]-9-fluoro-4-methyl-3,4,6,10b-tetrahydro-1H-pyrazino[2,1-a]isoindol-2-yl]quinoline-8-carbonitrile], for which the IC50 stood at 168 nM.

`C[C@@H]1CN(c2ccc(C#N)c3ncccc23)C[C@@H]2c3ccc(NCCN4CC[C@H](O)C4)cc3CN12` [Example 68, 5-[(4R,10bS)-8-[2-[(3S)-3-hydroxypyrrolidin-1-yl]ethylamino]-4-methyl-3,4,6,10b-tetrahydro-1H-pyrazino[2,1-a]isoindol-2-yl]quinoline-8-carbonitrile]: the IC50 was found to be 73.5 nM.

With `C[C@@H]1CN(c2ccc(C#N)c3ncsc23)C[C@@H]2c3ccc(N[C@H]4CNC[C@H]4F)cc3CN12` [Example 78, 7-[(4R,10bS)-8-[[(3S,4R)-4-fluoropyrrolidin-3-yl]amino]-4-methyl-3,4,6,10b-tetrahydro-1H-pyrazino[2,1-a]isoindol-2-yl]-1,3-benzothiazole-4-carbonitrile], the IC50 was 83.6 nM.

`C[C@H]1CN(c2ccc(C#N)c3ncccc23)C[C@H]2c3ccc(N4CCNCC4)cc3CN12` [Example 2, 5-[(4S,10bR)-4-methyl-8-piperazin-1-yl-3,4,6,10b-tetrahydro-1H-pyrazino[2,1-a]isoindol-2-yl]quinoline-8-carbonitrile]: the IC50 amounted to 125 nM.

Regarding `C[C@@H]1CN(c2ccc(C#N)c3ncccc23)C[C@@H]2c3ccc(NCC4(F)CNC4)cc3CN12` [Example 69, 5-[(4R,10bS)-8-[(3-fluoroazetidin-3-yl)methylamino]-4-methyl-3,4,6,10b-tetrahydro-1H-pyrazino[2,1-a]isoindol-2-yl]quinoline-8-carbonitrile], the IC50 was found to be 171 nM.

For `C[C@@H]1CN(c2ccc(C#N)c3ncccc23)C[C@@H]2c3ccc(N[C@@H]4CCCNC4)cc3CN12` [Example 65, 5-[(4R,10bS)-4-methyl-8-[[(3R)-3-piperidyl]amino]-3,4,6,10b-tetrahydro-1H-pyrazino[2,1-a]isoindol-2-yl]quinoline-8-carbonitrile], the IC50 came to 95.8 nM.

Take `CO[C@H]1CNCC[C@H]1Nc1ccc2c(c1)CN1[C@H](C)CN(c3ccc(C#N)c4ncccc34)C[C@H]21` [Example 66, 5-[(4R,10bS)-8-[[(3S,4R)-3-methoxy-4-piperidyl]amino]-4-methyl-3,4,6,10b-tetrahydro-1H-pyrazino[2,1-a]isoindol-2-yl]quinoline-8-carbonitrile]: the IC50 worked out at 141 nM.

As to `C[C@@H]1CN(c2ccc(C#N)c3ncccc23)C[C@@H]2c3cc(F)c(N4CC5CNCC(C4)O5)cc3CN12` [Example 85, 5-[(4R,10bS)-9-fluoro-4-methyl-8-(9-oxa-3,7-diazabicyclo[3.3.1]nonan-3-yl)-3,4,6,10b-tetrahydro-1H-pyrazino[2,1-a]isoindol-2-yl]quinoline-8-carbonitrile], the IC50 was determined as 151 nM.

For `C[C@@H]1CN(c2ccc(C#N)c3ncccc23)C[C@@H]2c3ccc(NC[C@@H]4C[C@H](F)CN4)cc3CN12` [Example 70, 5-[(4R,10bS)-8-[[(2S,4S)-4-fluoropyrrolidin-2-yl]methylamino]-4-methyl-3,4,6,10b-tetrahydro-1H-pyrazino[2,1-a]isoindol-2-yl]quinoline-8-carbonitrile], the IC50 amounted to 74 nM.

Regarding `C[C@@H]1CN(c2ccc(C#N)c3ncccc23)C[C@@H]2c3ccc(NC[C@H]4CNCCO4)cc3CN12` [Example 59, 5-[(4R,10bS)-4-methyl-8-[[(2R)-morpholin-2-yl]methylamino]-3,4,6,10b-tetrahydro-1H-pyrazino[2,1-a]isoindol-2-yl]quinoline-8-carbonitrile], the IC50 is 73.5 nM.

Regarding `CO[C@H]1CNC[C@H]1Nc1ccc2c(c1)CN1[C@H](C)CN(c3ccc(C#N)c4ncccc34)C[C@H]21` [Example 61, 5-[(4R,10bS)-8-[[(3R,4S)-4-methoxypyrrolidin-3-yl]amino]-4-methyl-3,4,6,10b-tetrahydro-1H-pyrazino[2,1-a]isoindol-2-yl]quinoline-8-carbonitrile], the IC50 is 93 nM.

With `C[C@@H]1CN(c2ccc(C#N)c3ncccc23)C[C@@H]2c3ccc(N4C[C@H]5CNCCN5C4=O)cc3CN12` [Example 72, 5-[(4R,10bS)-8-[(8aR)-3-oxo-1,5,6,7,8,8a-hexahydroimidazo[1,5-a]pyrazin-2-yl]-4-methyl-3,4,6,10b-tetrahydro-1H-pyrazino[2,1-a]isoindol-2-yl]quinoline-8-carbonitrile], the IC50 was 108 nM.

For `C[C@@H]1CN(c2ccc(Cl)c3ncccc23)C[C@@H]2c3ccc(N[C@H]4CNC[C@H]4F)cc3CN12` [Example 79, (4R,10b)-2-(8-chloro-5-quinolyl)-N-[(3S,4R)-4-fluoropyrrolidin-3-yl]-4-methyl-3,4,6,10b-tetrahydro-1H-pyrazino[2,1-a]isoindol-8-amine], the IC50 came to 113 nM.

With `CO[C@H]1CNC[C@@H]1Nc1ccc2c(c1)CN1[C@H](C)CN(c3ccc(C#N)c4ncccc34)C[C@H]21` [Example 62, 5-[(4R,10bS)-8-[[(3S,4S)-4-methoxypyrrolidin-3-yl]amino]-4-methyl-3,4,6,10b-tetrahydro-1H-pyrazino[2,1-a]isoindol-2-yl]quinoline-8-carbonitrile], the IC50 was found to be 84.5 nM.

With `C[C@@H]1CN(c2ccc(C#N)c3ncccc23)C[C@@H]2c3ccc(NCC4COCCN4)cc3CN12` (stereo partly drawn) [Example 57, 5-[(4R,10bS)-4-methyl-8-(morpholin-3-ylmethylamino)-3,4,6,10b-tetrahydro-1H-pyrazino[2,1-a]isoindol-2-yl]quinoline-8-carbonitrile], the IC50 worked out at 105 nM.
